What was measured:
[1] = target: T674I PDGFRα (Homo sapiens, UniProt P16234, T674I); test: HotSpot radiometric kinase assay, recombinant T674I PDGFRα; assay type: biochemical; conditions: for inhibition of T674I PDGFRα: 500 nM screening concentration, 10 μM ATP
[2] = system: LRRK2 mutants; test: HotSpot kinase assay, LRRK2 mutants; assay type: biochemical; conditions: single-dose screen verified in dose-response
[3] = system: Ba/F3 cells expressing WT FIP1L1-PDGFRα; test: cells; conditions: Mus musculus, BaF3, 24 h, read-out: IC50 cell growth/viability
[4] = system: Ba/F3 cells expressing T674I FIP1L1-PDGFRα; test: cells; conditions: Mus musculus, BaF3, 24 h, read-out: IC50 cell growth/viability
[5] = target: BTK (Homo sapiens, UniProt Q06187); test: Wild-type kinase panel, BTK; assay type: biochemical; conditions: single-dose screen
[6] = target: ERBB2 (Homo sapiens, UniProt P04626); test: Wild-type kinase panel, ERBB2; assay type: biochemical; conditions: single-dose screen
[7] = target: ERBB4 (Homo sapiens, UniProt Q15303); test: Wild-type kinase panel, ERBB4; assay type: biochemical; conditions: single-dose screen
[8] = target: C-SRC (Homo sapiens, UniProt P12931); test: Wild-type kinase panel, C-SRC; assay type: biochemical; conditions: single-dose screen
[9] = target: EPHA6 (Homo sapiens, UniProt Q9UF33); test: Wild-type kinase panel, EPHA6; assay type: biochemical; conditions: single-dose screen
[10] = target: EPHB4 (Homo sapiens, UniProt P54760); test: Wild-type kinase panel, EPHB4; assay type: biochemical; conditions: single-dose screen
[11] = target: FGR (Homo sapiens, UniProt P09769); test: Wild-type kinase panel, FGR; assay type: biochemical; conditions: single-dose screen
[12] = target: HCK (Homo sapiens, UniProt P08631); test: Wild-type kinase panel, HCK; assay type: biochemical; conditions: single-dose screen
[13] = target: LCK (Homo sapiens, UniProt P06239); test: Wild-type kinase panel, LCK; assay type: biochemical; conditions: single-dose screen
[14] = target: MNK1 (Homo sapiens, UniProt Q9BUB5); test: Wild-type kinase panel, MNK1; assay type: biochemical; conditions: single-dose screen
[15] = target: L1196M ALK (Homo sapiens, UniProt Q9UM73, L1196M); test: HotSpot kinase assay, L1196M ALK; assay type: biochemical; conditions: single-dose screen verified in dose-response
[16] = target: BLK (Homo sapiens, UniProt P51451); test: Wild-type kinase panel, BLK; assay type: biochemical; conditions: single-dose screen
[17] = target: JAK3 (Homo sapiens, UniProt P52333); test: Wild-type kinase panel, JAK3; assay type: biochemical; conditions: single-dose screen
[18] = target: TXK (Homo sapiens, UniProt P42681); test: Wild-type kinase panel, TXK; assay type: biochemical; conditions: single-dose screen
[19] = target: CLK3 (Homo sapiens, UniProt P49761); test: Wild-type kinase panel, CLK3; assay type: biochemical; conditions: single-dose screen
[20] = target: RIPK2 (Homo sapiens, UniProt O43353); test: Wild-type kinase panel, RIPK2; assay type: biochemical; conditions: single-dose screen
[21] = system: T790M EGFR mutants (T790M, T790M/L858R, d746-750/T790M); conditions: dose-response
[22] = system: mutants of the RET tyrosine kinase; test: HotSpot kinase assay, RET mutants; assay type: biochemical; conditions: single-dose screen verified in dose-response

Sequence of T674I PDGFRα (P16234 24-1089 T674I): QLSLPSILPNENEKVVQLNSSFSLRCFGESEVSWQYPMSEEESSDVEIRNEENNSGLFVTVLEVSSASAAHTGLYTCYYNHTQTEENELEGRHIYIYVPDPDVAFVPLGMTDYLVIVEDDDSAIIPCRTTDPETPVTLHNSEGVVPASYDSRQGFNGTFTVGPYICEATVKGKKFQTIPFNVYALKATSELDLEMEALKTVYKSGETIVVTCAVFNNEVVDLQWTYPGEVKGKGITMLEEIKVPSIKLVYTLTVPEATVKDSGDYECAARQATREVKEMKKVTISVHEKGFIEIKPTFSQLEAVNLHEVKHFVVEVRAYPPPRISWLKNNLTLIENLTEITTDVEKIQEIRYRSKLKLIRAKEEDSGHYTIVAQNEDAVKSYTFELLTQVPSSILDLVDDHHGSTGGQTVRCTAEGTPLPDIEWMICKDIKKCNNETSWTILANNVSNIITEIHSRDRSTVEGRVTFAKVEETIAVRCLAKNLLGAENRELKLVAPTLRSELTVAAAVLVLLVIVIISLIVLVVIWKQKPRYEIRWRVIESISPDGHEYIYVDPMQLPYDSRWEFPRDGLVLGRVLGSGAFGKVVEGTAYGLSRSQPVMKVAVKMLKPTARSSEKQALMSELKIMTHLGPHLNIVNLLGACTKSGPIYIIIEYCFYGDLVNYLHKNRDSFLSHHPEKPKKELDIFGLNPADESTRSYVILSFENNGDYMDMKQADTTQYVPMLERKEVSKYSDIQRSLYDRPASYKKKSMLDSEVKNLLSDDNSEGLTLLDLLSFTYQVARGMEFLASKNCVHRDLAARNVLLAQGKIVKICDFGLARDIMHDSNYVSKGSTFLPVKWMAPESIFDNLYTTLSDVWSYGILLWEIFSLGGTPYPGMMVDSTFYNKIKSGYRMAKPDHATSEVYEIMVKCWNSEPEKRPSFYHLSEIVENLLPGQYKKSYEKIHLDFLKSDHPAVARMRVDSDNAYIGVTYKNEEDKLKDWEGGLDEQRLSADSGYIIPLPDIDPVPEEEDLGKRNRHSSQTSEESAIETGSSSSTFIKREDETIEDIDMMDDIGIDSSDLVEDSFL
Sequence of BTK (Q06187 whole entry): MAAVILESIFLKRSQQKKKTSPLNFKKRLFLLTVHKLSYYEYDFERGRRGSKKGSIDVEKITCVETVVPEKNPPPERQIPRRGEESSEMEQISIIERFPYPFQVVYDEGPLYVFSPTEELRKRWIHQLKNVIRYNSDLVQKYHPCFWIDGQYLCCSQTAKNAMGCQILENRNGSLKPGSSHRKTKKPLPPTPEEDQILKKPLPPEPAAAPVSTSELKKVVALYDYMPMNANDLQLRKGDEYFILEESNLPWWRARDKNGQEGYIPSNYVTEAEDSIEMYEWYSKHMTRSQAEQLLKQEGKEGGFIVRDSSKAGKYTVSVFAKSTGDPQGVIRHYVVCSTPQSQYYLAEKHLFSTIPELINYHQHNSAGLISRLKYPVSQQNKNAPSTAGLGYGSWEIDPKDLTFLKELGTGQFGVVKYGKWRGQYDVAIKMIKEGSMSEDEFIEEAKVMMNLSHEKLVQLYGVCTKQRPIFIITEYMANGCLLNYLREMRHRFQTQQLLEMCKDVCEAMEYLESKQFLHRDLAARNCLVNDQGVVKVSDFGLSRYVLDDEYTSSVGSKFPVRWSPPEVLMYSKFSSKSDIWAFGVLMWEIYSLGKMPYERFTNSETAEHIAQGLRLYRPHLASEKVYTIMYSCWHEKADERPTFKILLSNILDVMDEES
Sequence of ERBB4 (Q15303 26-1308): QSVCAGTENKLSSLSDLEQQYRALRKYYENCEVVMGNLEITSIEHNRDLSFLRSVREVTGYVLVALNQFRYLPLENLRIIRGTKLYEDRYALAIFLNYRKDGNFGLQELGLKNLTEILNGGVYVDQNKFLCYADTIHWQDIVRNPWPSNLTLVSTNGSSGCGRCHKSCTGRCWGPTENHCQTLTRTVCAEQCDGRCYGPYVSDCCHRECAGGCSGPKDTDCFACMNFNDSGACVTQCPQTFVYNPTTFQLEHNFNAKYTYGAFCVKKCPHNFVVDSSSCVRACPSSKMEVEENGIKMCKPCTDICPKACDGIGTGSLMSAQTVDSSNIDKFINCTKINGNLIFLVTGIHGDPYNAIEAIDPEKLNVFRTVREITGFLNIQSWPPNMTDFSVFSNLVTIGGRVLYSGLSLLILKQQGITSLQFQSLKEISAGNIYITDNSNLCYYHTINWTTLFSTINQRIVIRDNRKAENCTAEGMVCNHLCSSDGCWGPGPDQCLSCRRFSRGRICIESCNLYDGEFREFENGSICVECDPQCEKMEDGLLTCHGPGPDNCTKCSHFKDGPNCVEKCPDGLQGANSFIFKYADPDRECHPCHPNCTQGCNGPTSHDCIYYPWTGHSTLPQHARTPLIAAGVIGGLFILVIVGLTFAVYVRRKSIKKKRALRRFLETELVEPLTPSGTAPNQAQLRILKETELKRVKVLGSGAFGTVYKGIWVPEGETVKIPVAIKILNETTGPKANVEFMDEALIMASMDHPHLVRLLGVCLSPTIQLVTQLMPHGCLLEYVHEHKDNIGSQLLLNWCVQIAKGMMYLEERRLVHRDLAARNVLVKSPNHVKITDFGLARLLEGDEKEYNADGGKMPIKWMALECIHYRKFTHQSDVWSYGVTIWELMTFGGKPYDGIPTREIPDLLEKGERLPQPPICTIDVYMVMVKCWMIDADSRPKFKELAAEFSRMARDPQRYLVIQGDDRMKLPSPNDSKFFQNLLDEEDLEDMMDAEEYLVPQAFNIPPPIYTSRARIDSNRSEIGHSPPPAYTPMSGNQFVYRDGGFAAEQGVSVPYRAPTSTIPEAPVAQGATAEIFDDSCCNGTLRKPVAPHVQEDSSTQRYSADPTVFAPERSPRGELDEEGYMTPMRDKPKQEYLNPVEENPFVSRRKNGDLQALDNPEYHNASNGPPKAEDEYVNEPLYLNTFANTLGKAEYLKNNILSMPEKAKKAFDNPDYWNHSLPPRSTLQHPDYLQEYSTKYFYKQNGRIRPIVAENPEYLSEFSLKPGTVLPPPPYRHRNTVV
Sequence of TXK (P42681 whole entry): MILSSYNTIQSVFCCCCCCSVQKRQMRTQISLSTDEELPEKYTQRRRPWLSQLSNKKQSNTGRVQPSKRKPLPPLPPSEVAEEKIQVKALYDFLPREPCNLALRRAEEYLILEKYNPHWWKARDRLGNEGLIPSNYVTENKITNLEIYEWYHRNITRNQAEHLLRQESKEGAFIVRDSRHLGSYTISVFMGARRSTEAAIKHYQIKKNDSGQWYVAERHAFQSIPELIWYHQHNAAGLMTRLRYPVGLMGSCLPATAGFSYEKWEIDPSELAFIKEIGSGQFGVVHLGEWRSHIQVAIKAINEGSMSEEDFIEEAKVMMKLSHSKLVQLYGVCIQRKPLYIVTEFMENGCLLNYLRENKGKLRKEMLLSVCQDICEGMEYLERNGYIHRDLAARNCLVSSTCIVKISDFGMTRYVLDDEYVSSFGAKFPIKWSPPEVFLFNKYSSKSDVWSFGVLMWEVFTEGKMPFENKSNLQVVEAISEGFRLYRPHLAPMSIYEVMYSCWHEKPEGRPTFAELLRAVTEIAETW
Sequence of ERBB2 (P04626 23-1255): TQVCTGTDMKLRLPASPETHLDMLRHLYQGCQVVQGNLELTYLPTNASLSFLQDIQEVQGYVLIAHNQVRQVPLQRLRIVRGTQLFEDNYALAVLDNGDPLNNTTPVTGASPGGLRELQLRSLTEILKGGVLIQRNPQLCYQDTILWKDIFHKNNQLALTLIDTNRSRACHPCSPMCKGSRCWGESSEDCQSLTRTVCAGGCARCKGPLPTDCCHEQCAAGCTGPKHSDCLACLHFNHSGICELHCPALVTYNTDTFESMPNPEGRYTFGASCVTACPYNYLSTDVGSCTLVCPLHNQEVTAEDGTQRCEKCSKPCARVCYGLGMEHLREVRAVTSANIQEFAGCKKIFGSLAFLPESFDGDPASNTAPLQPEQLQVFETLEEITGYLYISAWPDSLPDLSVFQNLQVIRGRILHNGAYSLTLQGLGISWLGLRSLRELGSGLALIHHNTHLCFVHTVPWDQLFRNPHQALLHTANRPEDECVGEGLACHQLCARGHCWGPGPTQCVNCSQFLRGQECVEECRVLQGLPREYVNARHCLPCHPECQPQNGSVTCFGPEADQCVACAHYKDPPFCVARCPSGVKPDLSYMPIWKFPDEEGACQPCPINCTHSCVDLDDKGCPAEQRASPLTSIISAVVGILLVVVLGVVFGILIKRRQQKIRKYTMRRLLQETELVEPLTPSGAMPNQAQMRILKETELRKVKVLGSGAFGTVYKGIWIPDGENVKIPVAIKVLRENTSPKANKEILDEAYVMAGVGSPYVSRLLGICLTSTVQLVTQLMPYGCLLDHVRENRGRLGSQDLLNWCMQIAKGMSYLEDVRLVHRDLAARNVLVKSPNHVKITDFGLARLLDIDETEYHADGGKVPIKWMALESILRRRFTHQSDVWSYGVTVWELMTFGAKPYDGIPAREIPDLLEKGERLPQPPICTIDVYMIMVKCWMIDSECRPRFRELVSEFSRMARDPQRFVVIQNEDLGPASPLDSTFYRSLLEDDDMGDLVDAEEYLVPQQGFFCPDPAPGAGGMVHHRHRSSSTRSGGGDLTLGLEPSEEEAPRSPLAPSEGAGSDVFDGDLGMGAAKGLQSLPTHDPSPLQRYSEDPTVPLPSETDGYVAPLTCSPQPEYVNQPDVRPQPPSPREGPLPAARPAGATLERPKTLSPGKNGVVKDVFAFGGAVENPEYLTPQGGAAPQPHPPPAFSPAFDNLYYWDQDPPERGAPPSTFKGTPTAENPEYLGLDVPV

COc1cc2ncnc(Nc3cccc(Br)c3)c2cc1OC [compound 6]
fold more potent than compound 7 against T674I PDGFRα ([1]; IC50 comparison): approximately 1.5 fold

Jak3 Inhibitor II
inhibition of LRRK2 mutants (in words) [2]: inhibit

C#Cc1cccc(Nc2ncnc3cc(OCCOC)c(OCCOC)cc23)c1 [erlotinib]
inhibition of T674I PDGFRα [1]: > 90% | IC50 [3]: 14.5 µM | IC50 [4]: 1.64 µM

CN(C)C/C=C/C(=O)Nc1cc2c(Nc3ccc(F)c(Cl)c3)ncnc2cc1O[C@H]1CCOC1 [afatinib]
inhibition of BTK [5]: more than 50% | inhibition of ERBB2 [6]: more than 50% | inhibition of ERBB4 [7]: more than 50% | inhibition of C-SRC [8]: more than 50% | inhibition of EPHA6 [9]: more than 50% | inhibition of EPHB4 [10]: more than 50% | inhibition of FGR [11]: more than 50% | inhibition of HCK [12]: more than 50% | inhibition of LCK [13]: more than 50% | inhibition of MNK1 [14]: more than 50%

bosutinib isomer
inhibition of crizotinib-resistant L1196M ALK (in words) [15]: inhibitor

EGFR/ErbB2/ErbB4 Inhibitor
inhibition of BLK [16]: more than 50% | inhibition of BTK [5]: more than 50% | inhibition of ERBB4 [7]: more than 50% | inhibition of JAK3 [17]: more than 50% | inhibition of TXK [18]: more than 50% | inhibition of CLK3 [19]: more than 50% | inhibition of RIPK2 [20]: more than 50% | apparent IC50 against all T790M EGFR kinases (in words) [21]: low nanomolar

COc1cc2ncnc(Nc3cccc(Cl)c3)c2cc1OC [compound 5]
fold more potent than compound 7 against T674I PDGFRα ([1]; IC50 comparison): approximately 1.5 fold

CNC(=O)c1cc(Oc2ccc(NC(=O)Nc3ccc(Cl)c(C(F)(F)F)c3)cc2)ccn1 [sorafenib]
inhibition of T674I PDGFRα [1]: > 90% | IC50 [4]: 0.144 µM

Cc1cc(Nc2cc(N3CCN(C)CC3)nc(Sc3ccc(NC(=O)C4CC4)cc3)n2)[nH]n1 [tozasertib]
inhibition of RET mutants (in words) [22]: can inhibit

CCN(CC)CCNC(=O)c1c(C)[nH]c(/C=C2\C(=O)Nc3ccc(F)cc32)c1C [sunitinib]
inhibition of T674I PDGFRα [1]: > 90% | IC50 [4]: 0.0452 µM

Cc1ccc(Nc2nccc(N(C)c3ccc4c(C)n(C)nc4c3)n2)cc1S(N)(=O)=O [pazopanib]
inhibition of T674I PDGFRα [1]: > 90% | IC50 [4]: 3.17 µM

Flt-3 Inhibitor
inhibition of LRRK2 mutants (in words) [2]: inhibit

COc1cc2ncnc(Nc3ccc(Oc4ccccc4)cc3)c2cc1OC [compound 3]
potency relative to compound 4 against T674I PDGFRα ([1]; IC50 comparison): several-fold more potent

COc1cc2ncnc(Nc3ccc(O)cc3)c2cc1OC [compound 2]
fold less potent than compound 3 against T674I PDGFRα ([1]; IC50 comparison): ~ 2 fold

COc1cc2ncnc(Nc3cccc(O)c3)c2cc1OC [compound 1]
fold more potent than compound 2 against T674I PDGFRα ([1]; IC50 comparison, meta vs para substituent): 2 fold

— PMC4740242 (Cell reports, 2016)
